Laboratory results published in ChEMBL document CHEMBL1157712, “Hit to lead account of the discovery of bisbenzamide and related ureidobenzamide inhibitors of Rho kinase” (J Med Chem, 2010).

Key:
[1] = target: Mitogen-activated protein kinase 14 (Homo sapiens) (UniProt Q16539); conditions: 3 to 6 uM
Description: Inhibition of p38a at 3 to 6 uM relative to control

[2] = target: Leucine-rich repeat serine/threonine-protein kinase 2 (Homo sapiens) (UniProt Q5S007); conditions: 3 to 6 uM
Description: Inhibition of LRRK2 at 3 to 6 uM relative to control

[3] = target: T1, Protein kinase C epsilon type (Homo sapiens, UniProt Q02156); assay: Inhibition of PKCepsilon
T1 sequence (Q02156 whole entry): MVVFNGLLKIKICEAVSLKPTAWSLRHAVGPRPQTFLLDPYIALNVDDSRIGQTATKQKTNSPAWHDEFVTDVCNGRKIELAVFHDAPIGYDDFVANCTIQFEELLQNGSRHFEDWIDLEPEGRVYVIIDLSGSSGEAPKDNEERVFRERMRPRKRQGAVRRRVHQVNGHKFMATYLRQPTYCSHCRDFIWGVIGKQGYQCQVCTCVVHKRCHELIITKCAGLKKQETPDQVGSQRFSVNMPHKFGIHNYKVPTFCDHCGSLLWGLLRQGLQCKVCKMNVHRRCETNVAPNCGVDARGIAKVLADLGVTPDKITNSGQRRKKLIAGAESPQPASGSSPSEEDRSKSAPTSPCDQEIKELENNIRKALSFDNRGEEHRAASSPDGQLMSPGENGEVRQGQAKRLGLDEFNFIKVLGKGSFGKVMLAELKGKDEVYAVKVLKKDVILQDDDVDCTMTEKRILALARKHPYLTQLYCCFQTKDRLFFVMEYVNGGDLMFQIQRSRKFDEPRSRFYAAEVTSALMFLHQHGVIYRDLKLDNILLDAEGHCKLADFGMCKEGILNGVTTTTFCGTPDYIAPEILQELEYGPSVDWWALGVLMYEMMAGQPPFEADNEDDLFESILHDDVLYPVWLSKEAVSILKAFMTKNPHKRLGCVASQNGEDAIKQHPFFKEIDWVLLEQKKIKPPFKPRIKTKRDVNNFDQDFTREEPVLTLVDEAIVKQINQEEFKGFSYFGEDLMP

[4] = target: Serine/threonine-protein kinase 3 (Homo sapiens) (UniProt Q13188); assay: Inhibition of MST2 at 3 uM relative to control; values are per cent of control
Sequence of Serine/threonine-protein kinase 3 (Homo sapiens) (Q13188 whole entry): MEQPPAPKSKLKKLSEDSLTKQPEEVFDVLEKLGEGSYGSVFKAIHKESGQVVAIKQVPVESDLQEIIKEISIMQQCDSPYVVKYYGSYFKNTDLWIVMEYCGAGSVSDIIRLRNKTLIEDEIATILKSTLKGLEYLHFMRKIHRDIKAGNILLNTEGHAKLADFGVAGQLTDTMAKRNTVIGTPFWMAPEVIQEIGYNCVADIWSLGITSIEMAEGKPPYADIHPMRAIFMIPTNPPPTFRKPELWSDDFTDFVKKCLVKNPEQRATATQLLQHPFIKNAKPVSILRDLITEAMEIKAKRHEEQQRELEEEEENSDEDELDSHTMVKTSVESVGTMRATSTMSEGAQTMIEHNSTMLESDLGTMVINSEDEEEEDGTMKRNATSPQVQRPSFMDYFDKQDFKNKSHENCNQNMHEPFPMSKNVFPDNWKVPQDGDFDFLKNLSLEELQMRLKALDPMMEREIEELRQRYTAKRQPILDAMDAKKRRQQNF

[5] = target: Serine/threonine-protein kinase pim-2 (Homo sapiens, UniProt Q9P1W9); assay: Inhibition of PIM2 at 3 uM relative to control; values are per cent of control
Sequence of Serine/threonine-protein kinase pim-2 (Q9P1W9 whole entry, looked up): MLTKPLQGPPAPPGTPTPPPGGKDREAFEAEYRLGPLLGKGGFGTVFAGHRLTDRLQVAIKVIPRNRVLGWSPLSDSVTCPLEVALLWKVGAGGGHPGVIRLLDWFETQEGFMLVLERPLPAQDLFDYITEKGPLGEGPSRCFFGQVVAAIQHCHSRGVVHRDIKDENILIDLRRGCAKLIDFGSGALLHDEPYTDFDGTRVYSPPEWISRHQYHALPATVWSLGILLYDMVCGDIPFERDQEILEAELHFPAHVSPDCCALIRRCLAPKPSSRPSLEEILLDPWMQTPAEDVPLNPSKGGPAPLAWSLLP

[6] = target: MAP/microtubule affinity-regulating kinase 3 (Homo sapiens) (UniProt P27448); assay: Inhibition of MARK3 at 3 uM relative to control; values are per cent of control
Sequence of MAP/microtubule affinity-regulating kinase 3 (Homo sapiens) (P27448 whole entry, looked up): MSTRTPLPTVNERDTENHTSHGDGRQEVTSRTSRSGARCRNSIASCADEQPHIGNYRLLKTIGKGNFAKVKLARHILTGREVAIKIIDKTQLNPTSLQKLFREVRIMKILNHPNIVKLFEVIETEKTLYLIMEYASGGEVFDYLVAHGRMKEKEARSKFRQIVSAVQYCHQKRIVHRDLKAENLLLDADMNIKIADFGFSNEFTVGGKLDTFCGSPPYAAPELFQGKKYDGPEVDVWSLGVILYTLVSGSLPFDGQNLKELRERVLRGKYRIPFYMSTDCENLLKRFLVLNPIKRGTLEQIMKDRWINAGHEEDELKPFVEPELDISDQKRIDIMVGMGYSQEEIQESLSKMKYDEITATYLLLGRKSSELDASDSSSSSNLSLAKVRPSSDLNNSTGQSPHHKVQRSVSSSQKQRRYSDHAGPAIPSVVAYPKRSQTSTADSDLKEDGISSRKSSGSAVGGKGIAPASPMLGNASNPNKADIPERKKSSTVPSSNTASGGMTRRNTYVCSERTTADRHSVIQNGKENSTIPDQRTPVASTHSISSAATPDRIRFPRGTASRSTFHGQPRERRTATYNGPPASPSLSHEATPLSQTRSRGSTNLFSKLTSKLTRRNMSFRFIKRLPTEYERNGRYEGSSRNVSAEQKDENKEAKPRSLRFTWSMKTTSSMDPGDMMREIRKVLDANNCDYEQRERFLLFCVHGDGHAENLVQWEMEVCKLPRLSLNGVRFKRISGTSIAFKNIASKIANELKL

[7] = target: SRSF protein kinase 1 (Homo sapiens) (UniProt Q96SB4); assay: Inhibition of SRPK1 at 3 uM relative to control; values are per cent of control
Sequence of SRSF protein kinase 1 (Homo sapiens) (Q96SB4 whole entry): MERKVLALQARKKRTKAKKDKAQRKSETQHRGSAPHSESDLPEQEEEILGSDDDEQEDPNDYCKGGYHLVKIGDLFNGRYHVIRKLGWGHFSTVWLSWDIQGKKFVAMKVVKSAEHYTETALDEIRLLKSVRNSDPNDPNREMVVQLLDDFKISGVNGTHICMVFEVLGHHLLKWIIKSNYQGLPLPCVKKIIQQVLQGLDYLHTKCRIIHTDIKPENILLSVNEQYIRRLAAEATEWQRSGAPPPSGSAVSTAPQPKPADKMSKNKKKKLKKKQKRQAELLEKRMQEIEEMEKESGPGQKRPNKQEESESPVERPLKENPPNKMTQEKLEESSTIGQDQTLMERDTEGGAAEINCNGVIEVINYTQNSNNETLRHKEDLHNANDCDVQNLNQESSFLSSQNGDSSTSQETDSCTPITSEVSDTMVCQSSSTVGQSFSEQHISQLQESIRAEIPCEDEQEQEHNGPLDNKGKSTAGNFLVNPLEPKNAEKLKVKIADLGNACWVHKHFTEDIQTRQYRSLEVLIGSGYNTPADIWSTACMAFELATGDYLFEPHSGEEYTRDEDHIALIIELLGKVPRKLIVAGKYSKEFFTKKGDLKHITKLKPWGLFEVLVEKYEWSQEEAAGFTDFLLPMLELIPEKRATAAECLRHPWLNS

[8] = target: MAP kinase-activated protein kinase 3 (Homo sapiens) (UniProt Q16644); assay: Inhibition of MAPKAPK3 at 3 uM relative to control; values are per cent of control
Sequence of MAP kinase-activated protein kinase 3 (Homo sapiens) (Q16644 whole entry, looked up): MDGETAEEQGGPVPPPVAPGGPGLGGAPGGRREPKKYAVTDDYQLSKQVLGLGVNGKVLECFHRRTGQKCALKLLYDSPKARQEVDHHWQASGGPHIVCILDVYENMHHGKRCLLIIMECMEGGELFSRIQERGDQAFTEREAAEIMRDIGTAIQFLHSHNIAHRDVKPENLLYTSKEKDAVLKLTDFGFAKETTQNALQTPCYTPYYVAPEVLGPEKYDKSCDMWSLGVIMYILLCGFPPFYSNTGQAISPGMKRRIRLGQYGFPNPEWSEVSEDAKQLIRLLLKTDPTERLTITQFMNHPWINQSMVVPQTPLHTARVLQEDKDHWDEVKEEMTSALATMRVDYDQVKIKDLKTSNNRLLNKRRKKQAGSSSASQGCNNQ

Sequence of Mitogen-activated protein kinase 14 (Homo sapiens) (Q16539 whole entry): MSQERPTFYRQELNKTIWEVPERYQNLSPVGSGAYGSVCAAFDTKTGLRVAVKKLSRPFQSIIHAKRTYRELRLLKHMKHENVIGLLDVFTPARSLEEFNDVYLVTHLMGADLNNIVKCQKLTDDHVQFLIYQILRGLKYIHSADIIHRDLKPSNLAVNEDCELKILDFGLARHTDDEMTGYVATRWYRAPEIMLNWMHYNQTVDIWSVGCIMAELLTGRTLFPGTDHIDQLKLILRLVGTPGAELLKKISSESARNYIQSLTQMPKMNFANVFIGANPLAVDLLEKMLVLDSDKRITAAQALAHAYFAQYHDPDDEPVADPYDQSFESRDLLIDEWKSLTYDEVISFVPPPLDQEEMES

Compound	residual activity [1]	residual activity [2]	IC50 [3]	residual activity [4]	residual activity [5]	residual activity [6]	residual activity [7]	residual activity [8]
COc1ccc(C(=O)NCc2cccc(C(=O)Nc3ccc4c(c3)CNCC4)c2)cc1OC	> 50%	> 50%						
NC(=O)c1ccc(NC(=O)NCc2cccc(C(=O)Nc3ccc4c(c3)CNCC4)c2)cc1			> 5 µM	> 50%	> 50%	> 50%	> 50%	> 50%
